For the test, the target named is T1, human IDO1 (Homo sapiens, UniProt P14902).
T1 construct: expressed in transfected cells
Briefly: IDO inhibition assay in HEK293 cells stably expressing human IDO1 (kynurenine production, Ehrlich reagent, absorbance 490 nm). Format: cell-based. The conditions noted are these: 20 hours incubation with compound, 500 nM reference standard = 100% inhibition, read-out: IDO1 HEK Human IC50. The procedure, abridged: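 HEK293 clones stably expressing human IDO1 (10,000 cells/well, phenol red-free RPMI, 10% FBS) were treated with compound for 20 hours at 37° C. After 0.2% TCA and 30 min at 50° C., kynurenine was read with Ehrlich reagent at 490 nm. IC50 was normalised to DMSO (0%) and 500 nM reference standard (100%).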

Consider 12 molecules from patent US12059420B2 (BRISTOL-MYERS SQUIBB COMPANY, priority 2018, dated 2024).

Counter-ions that a name gives are not always drawn.

T1 sequence (P14902 whole entry): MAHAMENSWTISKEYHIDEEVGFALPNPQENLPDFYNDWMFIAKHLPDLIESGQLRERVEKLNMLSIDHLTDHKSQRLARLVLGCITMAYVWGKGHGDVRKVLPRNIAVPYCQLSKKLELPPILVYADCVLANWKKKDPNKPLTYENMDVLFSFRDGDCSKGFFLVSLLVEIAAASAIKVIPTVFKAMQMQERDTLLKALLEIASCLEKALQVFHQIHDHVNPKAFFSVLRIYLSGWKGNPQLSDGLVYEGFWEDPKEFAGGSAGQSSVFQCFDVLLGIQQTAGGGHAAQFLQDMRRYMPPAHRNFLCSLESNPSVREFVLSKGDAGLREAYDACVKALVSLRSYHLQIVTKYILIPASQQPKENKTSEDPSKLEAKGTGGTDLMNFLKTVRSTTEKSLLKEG

Turning to `CCCN(CC1CC1)c1cc(NC(=O)Cc2ccc(F)cc2F)cc(-c2ccccc2-c2nnn[nH]2)n1` [Example 70, N-(2-(2-(1H-tetrazol-5-yl)phenyl)-6-((cyclopropylmethyl)(propyl)amino)pyridin-4-yl)-2-(2,4-difluorophenyl)acetamide, TFA], the IC50 – broadly, the midpoint of a concentration-inhibition curve – came to 422 nM. Turning to `CCCN(Cc1ccccc1)c1cc(NC(=O)Nc2ccc(F)cc2F)cc(-c2ccccc2-c2nnn[nH]2)n1` [Example 71, 1-(2-(2-(1H-tetrazol-5-yl)phenyl)-6-(benzyl(propyl)amino)pyridin-4-yl)-3-(2,4-difluorophenyl)urea, TFA], the IC50 was 32.2 nM. On to `CCCN(Cc1ccccc1)c1cc(NC(=O)Nc2ccc(Cl)cc2F)cc(-c2ccccc2-c2nnn[nH]2)n1` [Example 72, 1-(2-(2-(1H-tetrazol-5-yl)phenyl)-6-(benzyl(propyl)amino)pyridin-4-yl)-3-(4-chloro-2-fluorophenyl)urea, TFA], for which the half-maximal inhibitory concentration (IC50) was 8.5 nM. Under `CCCN(CC1CC1)c1cc(NC(=O)Cc2ccc(F)cc2)cc(-c2ccccc2-c2nnn[nH]2)n1` [Example 73, N-(2-(2-(1H-tetrazol-5-yl)phenyl)-6-((cyclopropylmethyl)(propyl)amino)pyridin-4-yl)-2-(4-fluorophenyl)acetamide, TFA] stands 334 nM; under `CC(C)CN(Cc1ccccc1)c1cc(Nc2ncc(C(F)(F)F)cn2)cc(-c2ccccc2-c2nnn[nH]2)n1` [Example 74, 6-(2-(1H-tetrazol-5-yl)phenyl)-N2-benzyl-N2-isobutyl-N4-(5-(trifluoromethyl)pyrimidin-2-yl)pyridine-2,4-diamine, TFA], 75.6 nM; under `CCCN(Cc1ccc(F)cc1)c1cc(NC(=O)Cc2ccc(C)cc2F)cc(-c2ccccc2-c2nnn[nH]2)n1` [Example 75, N-(2-(2-(1H-tetrazol-5-yl)phenyl)-6-((4-fluorobenzyl)(propyl)amino)pyridin-4-yl)-2-(2-fluoro-4-methylphenyl)acetamide, TFA], 27.9 nM. For `Cc1ccc(CC(=O)Nc2cc(-c3ccccc3-c3nnn[nH]3)nc(N3CCN(Cc4ccccc4)C(=O)C3)c2)cc1` [Example 76, N-(2-(2-(1H-tetrazol-5-yl)phenyl)-6-(4-benzyl-3-oxopiperazin-1-yl)pyridin-4-yl)-2-(p-tolyl)acetamide, TFA], the IC50 was found to be 998 nM. As for `Cc1ccc(CC(=O)Nc2cc(-c3ccccc3-c3nnn[nH]3)nc(N(CC(C)C)C3CCOCC3)c2)cc1` [Example 77, N-(2-(2-(1H-tetrazol-5-yl)phenyl)-6-(isobutyl(tetrahydro-2H-pyran-4-yl)amino)pyridin-4-yl)-2-(p-tolyl)acetamide, TFA], the half-inhibitory concentration (IC50) came out at 2090 nM.

In the case of `Cc1ccc(NC(=O)Nc2cc(-c3ccccc3-c3nnn[nH]3)nc(N(Cc3ccc(F)cc3)CC(C)C)c2)cc1` [Example 78, 1-(2-(2-(1H-tetrazol-5-yl)phenyl)-6-((4-fluorobenzyl)(isobutyl)amino)pyridin-4-yl)-3-(p-tolyl)urea, TFA], the IC50 came out at 8.2 nM. Take `Cc1ccc(CC(=O)Nc2cc(-c3ccccc3-c3nnn[nH]3)nc(N(Cc3ccccc3)CC(C)C)c2)c(F)c1` [Example 79, N-(2-(2-(1H-tetrazol-5-yl)phenyl)-6-(benzyl(isobutyl)amino)pyridin-4-yl)-2-(2-fluoro-4-methylphenyl)acetamide, TFA]: the IC50 is 18.3 nM. As for `CC(C)CN(Cc1ccccc1)c1cc(NC(=O)Cc2ccc(F)cc2)cc(-c2ccccc2-c2nnn[nH]2)n1` [Example 80, N-(2-(2-(1H-tetrazol-5-yl)phenyl)-6-(benzyl(isobutyl)amino)pyridin-4-yl)-2-(4-fluorophenyl)acetamide, TFA], the IC50 is 350 nM. Take `CCCN(CC1CC1)c1cc(NC(=O)Cc2ccc(C)cc2F)cc(-c2ccccc2-c2nnn[nH]2)n1` [Example 82, N-(2-(2-(1H-tetrazol-5-yl)phenyl)-6-((cyclopropylmethyl)(propyl)amino)pyridin-4)-2-(2-fluoro-4-methylphenyl)acetamide, TFA]: the half-inhibitory concentration (IC50) was found to be 731 nM.
